Measurements: ChEMBL document CHEMBL1201862, “PubChem BioAssay data set” (2004)
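Values below derive from 48-hour exposures of cells grown in 96-well plates, with endpoints linearly interpolated between the two concentrations bracketing the appropriate inhibition level. GI50 is the concentration that inhibits growth by half.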 Calls of active or inactive are those of the source. Cut-off read from the data, not from the text of the source: active = GI50 up to about 1.1 µM and inactive = higher.

Columns and labels:
Assay in all cases: NCI-60 cell line screen, 48 h
786-0 = tested on: 786-0
A549 = tested on: A549
ACHN = tested on: ACHN
CAKI-1 = tested on: CAKI-1
CCRF-CEM = tested on: CCRF-CEM
DLD-1 = tested on: DLD-1
DMS-114 = tested on: DMS-114
EKVX = tested on: EKVX
HCC 2998 = tested on: HCC 2998
HCT-116 = tested on: HCT-116
HL-60 = tested on: HL-60
HOP-18 = tested on: HOP-18
HOP-62 = tested on: HOP-62
HT-29 = tested on: HT-29
IGROV-1 = tested on: IGROV-1
K562 = tested on: K562
KM-20L2 = tested on: KM-20L2
KM12 = tested on: KM12
LOX IMVI = tested on: LOX IMVI
LXFL 529 = tested on: LXFL 529
M14 = tested on: M14
MOLT-4 = tested on: MOLT-4
Malme-3M = tested on: Malme-3M
NCI-H226 = tested on: NCI-H226
NCI-H23 = tested on: NCI-H23
NCI-H460 = tested on: NCI-H460
NCI-H522 = tested on: NCI-H522
OVCAR-3 = tested on: OVCAR-3
OVCAR-4 = tested on: OVCAR-4
OVCAR-5 = tested on: OVCAR-5
OVCAR-8 = tested on: OVCAR-8
RPMI-8226 = tested on: RPMI-8226
RXF 393 = tested on: RXF 393
SF-268 = tested on: SF-268
SF-295 = tested on: SF-295
SF-539 = tested on: SF-539
SK-MEL-28 = tested on: SK-MEL-28
SK-MEL-2 = tested on: SK-MEL-2
SK-OV-3 = tested on: SK-OV-3
SN12C = tested on: SN12C
SNB-19 = tested on: SNB-19
SNB-75 = tested on: SNB-75
SNB-78 = tested on: SNB-78
SW-620 = tested on: SW-620
TK-10 = tested on: TK-10
U-251 = tested on: U-251
UACC-257 = tested on: UACC-257
UACC-62 = tested on: UACC-62
UO-31 = tested on: UO-31
XF498 = tested on: XF498

Measured: GI50

COC(=O)/C(C#N)=C1\CCC(O)N1C (stereo not given)
inactive: 786-0 > 100 µM | A549 > 100 µM | ACHN > 100 µM | CAKI-1 > 100 µM | CCRF-CEM > 100 µM | DLD-1 > 100 µM | DMS-114 > 100 µM | EKVX > 100 µM | HCC 2998 > 100 µM | HCT-116 > 100 µM | HL-60 > 100 µM | HOP-18 > 100 µM | HOP-62 > 100 µM | HT-29 > 100 µM | IGROV-1 > 100 µM | K562 > 100 µM | KM-20L2 > 100 µM | KM12 > 100 µM | LOX IMVI > 100 µM | LXFL 529 > 100 µM | M14 > 100 µM | MOLT-4 > 100 µM | Malme-3M > 100 µM | NCI-H226 > 100 µM | NCI-H23 > 100 µM | NCI-H460 > 100 µM | NCI-H522 > 100 µM | OVCAR-3 > 100 µM | OVCAR-4 > 100 µM | OVCAR-5 > 100 µM | OVCAR-8 > 100 µM | RPMI-8226 > 100 µM | RXF 393 > 100 µM | SF-268 > 100 µM | SF-295 > 100 µM | SF-539 > 100 µM | SK-MEL-28 > 100 µM | SK-MEL-2 > 100 µM | SK-OV-3 > 100 µM | SN12C > 100 µM | SNB-19 > 100 µM | SNB-75 > 100 µM | SNB-78 > 100 µM | SW-620 > 100 µM | TK-10 > 100 µM | U-251 > 100 µM | UACC-257 > 100 µM | UACC-62 > 100 µM | UO-31 > 100 µM | XF498 > 100 µM
